According to patent publication US20250082773A1, “COMBINATION THERAPY USING EXOSOME SECRETION INHIBITOR AND IMMUNE CHECKPOINT INHIBITOR” (Research & Business Foundation SUNGKYUNKWAN UNIVERSITY, priority 2021, published 2025):

How the values were obtained:
CT26 tumor = assay: Tumor growth inhibition test in CT26 tumor-bearing mice; assay type: in vivo; conditions: αPD-1 5 mg/kg i.p. every 3 days x3
Method: CT26 cells (2×10^6) were suspended in cold PBS and subcutaneously injected to establish CT26 tumor-bearing mice.
The tumor volume was measured using calipers and calculated for each mouse using the following equation: V=½ab^2 (a is the longest axis and b is the shortest axis). After the treatment schedule, the tumors were excised and weighed.
The tumor volume was measured every day by measuring long-axis and short-axis of the tumor using calipers.

exosomal PD-L1 = assay: Exosomal PD-L1 in plasma of CT26 tumor-bearing mice (ELISA); assay type: in vivo; conditions: SFX 200 mg/kg, αPD-1 5 mg/kg, FIG. 4C
Method: To assess PD-L1 on EXOs isolated from mouse plasma, ELISA plates were coated with a monoclonal antibody against PD-L1 (R&D Systems, Minneapolis, MN, USA) overnight at 25° C. Free binding sites were blocked with blocking buffer for 2 h at 25° C. After washing the plates with 0.05% Tween-20 in PBS, EXOs were added to each well and incubated for 2 h at 25° C. […] The plate was incubated for 20 min with a substrate solution composed of H2O2 and tetramethylbenzidine. After the addition of a stop solution containing 2N H2SO4 (R&D Systems, DY994), the plate was immediately read at 450 nm using an xMark™ microplate reader (Bio-Rad).

CT26 cells = assay: Ability of PDC to inhibit exosome secretion in CT26 cells (NTA); assay type: cell-based, murine; set-up: dose or concentration left out as unconfirmed; conditions: FIG. 14
Method: To evaluate the ability of PEG-b-Poly(L-lysine-CDM-SFX) to inhibit the secretion of exosomes, CT26 cells, a murine colon cancer cell line, were treated with 100 µM of SFX and the same amount of PDC, exosomes from the supernatant were separated, and secreted exosomes were quantitatively analyzed.
In addition, to evaluate the ability of PEG-SS-AMB to inhibit the secretion of exosomes, CT26 cells, a murine colon cancer cell line, were treated with […] of PEG-SS-AMB, exosomes from the supernatant were separated, and secreted exosomes were quantitatively analyzed.

In the case of `COc1ccccc1Oc1c(NS(=O)(=O)c2ccc(C(C)(C)C)cc2)nc(-c2ncccn2)nc1OCCO` [BST, bosentan], the “tumor growth (tumor volume)” value (CT26 tumor; BST 10 mg/kg orally daily, FIG. 16B) is reported as “effectively retarded”.
With `CCCNS(=O)(=O)Nc1ncnc(OCCOc2ncc(Br)cn2)c1-c1ccc(Br)cc1` [MCT, macitentan] the “tumor growth (tumor volume)” value (CT26 tumor; MCT 50 mg/kg orally daily, FIG. 17B) was “effectively retarded”.
In the case of `Cc1noc(NS(=O)(=O)c2ccc(N)cc2)c1C` [SFX, sulfisoxazole], the “exosomal PD-L1 levels in the plasma” value (exosomal PD-L1) is reported as “significantly decreased” and the “inhibition of exosome secretion compared to the untreated control group” value (CT26 cells) is reported as “more than 50%”.
